According to patent US20040009189A1, “Antimutagenic effects of ganoderma lucidum spores” (priority 2002, published 2004):
Where two headings read alike, the source gives them in different places. Marks after values point to notes of the source that are not given here.

How the values were obtained:
[1] = tested on: bone marrow cells of mice
Description: Male NIH mice weighing 22-25 g, provided by the Guangdong Provincial Animal Center for Medical Experiments, were used. […] Each group contained 5 mice. Dosages were administered once a day for 3 consecutive days, orally via gavage.
Distilled water was then added to adjust the suspension to the required concentration. The compound was orally administered through gavage at 0.4 ml/10 g of body weight. […] Twenty four (24) hours after the last administration the animals were sacrificed by dislocation of the cervical vertebra. The femur was then removed, the muscle stripped away, and the bone marrow flushed out using phosphate buffer, centrifuged, fixed hyponotically and the chromosome sample is prepared using methods routine in the art. It was then stained for 10 min using 10% Giemsa's stain (pH 6.8).
Well dispersed Metaphase cells were selected for observation under the oil immersion lens. One hundred (100) metaphase cells were observed per animal, the number of cells with chromosomal aberrations noted, and the chromosomal aberration rate calculated. The data obtained were analyzed statistically calculated using SPSS for Windows 8.0 (t-test).

[2] = tested on: mice bone marrow cell chromosomal aberration induced by cyclophosphamide; details: 500 cells
Text: The test used was the modified mice bone marrow cell micronucleus test as specified in “A Notice Concerning Issuance of the Revised Items of the ‘Health Food Functional Assessment Procedures and Testing Methods’,” a document from the Ministry of Public Health of the People's Republic of China, which is hereby incorporated by reference.
The mice were randomly divided by weight into 9 groups, 5 males and 5 females respectively per group. Animals in each group were given the following treatment:
The drug was prepared as a suspension of the required concentration in distilled water, and administered orally through tube at individual dosages of 0.2 mL/10 g of body weight. The negative control group was given distilled water of the equivalent volume through tube once a day for 30 days continuously. […] 4 hours before the mice were sacrificed they are given colchicine, and the bone marrow was extracted in order to prepare the chromosome samples in the routine way.
Samples from each group were observed. One hundred (100) metaphase cells per mouse were observed, and the chromosomal structures and the numbers of aberrations were recorded. Using SPSS for Windows 8.0 (t-test), a comparative analysis was made of the experimental data from the various dosage groups and the positive groups and tested to find out if there was any significant difference between the males and females within the group.

fetal rats [3] = assay: Effects on fetal rat organogenesis (Bouins fixation, sectioning); design: species or system Sprague Dawley (SD) rats; details: female, Sprague-Dawley, in vivo
Text: Approximately ⅓ of the fetal rats were removed per litter, fixed with Bouins solution and then manually sectioned, with the various internal organs being then observed under the dissecting microscope.

[4] = Weight gain of the pregnant rats (embryotoxicity/teratogenicity study); assay type: in vivo; details: days 10-12 of pregnancy
Description: (§1) To test the embryotoxicity and teratogenic effects of GASP, a rat model was used.
(§2) Healthy SD rats weighing between 200-250 g were selected and housed together overnight at a 2:1 ratio of females to males. Beginning on the next day, vaginal smears were examined each morning, and the date when sperm was found was considered day 0 of pregnancy.
(§3) The pregnant rats were randomly divided into 5 groups, 18 rats per group. […] The human clinical dose was four capsules per dose (each capsule containing 0.3 g of the GSAP), four times daily. The study was designed so that the low dose group was 428.6 mg/kg, medium dose group was 2143 mg/kg, and the high dose group was 4286 mg/kg (equivalent to 1, 5, and 10 times the human clinical dose, respectively, when calculated according to the respective body surface areas of the rat and human). During the 6-15 days of the pregnancy, the GASP was orally administered to the rats in the dosage groups at a volume of 1.5 ml/100 g through gavage. The positive control group was given aspirin (250 mg/kg) on days 10-12 of the pregnancy, at the volume of 1.0 ml/100 g orally by means of a stomach tube, while the negative control group was given the equivalent amount of distilled water orally through gavage.
All the pregnant rats were weighed once every 3 days, so as to adjust the dosage. […]

fetal rats [5] = assay: Effects on early embryo development in pregnant rats; assay type: in vivo; details: aspirin 250 mg/kg oral, days 10-12 of pregnancy; 14 pregnant rats
Description: as §1, §2, §3
All the pregnant rats were weighed once every 3 days, so as to adjust the dosage. On the day 20 of the pregnancy, the animals were sacrificed by dislocating the vertebra, and a cesarean was performed to obtain the fetal rats in order to check various indexes and for statistical analysis.

[6] = positive control: cyclophosphamide 40 mg/kg oral, single administration, 500 cells counted
[7] = CP 40 mg/kg alone (positive group), F
[8] = CP 40 mg/kg alone (positive group), M
[9] = CP 50 mg/kg alone (positive group 4), F
[10] = CP 50 mg/kg alone (positive group 4), M

In the case of `O=P1(N(CCCl)CCCl)NCCCO1` (stereo not shown) [CP, cyclophosphamide], the “Chromosomal aberration rate vs negative control group” value ([1]; CP 40 mg/kg, p<0.01) is reported as “noticeably higher than that of the negative control group”, the “Chromosomal Aberration Rate (%)” value [1, 6] is reported as 25.0* % and the No. aberrant cells [1, 6] is reported as 115. For the same molecule, the “Type and Number of Aberration: I (chromosomal fragmentation)” value [1, 6] was 35, the “Type and Number of Aberration: b (chromosomal breakage)” value [1, 6] was “b(48)” and the “Type and Number of Aberration: f (chromosal fusion)” value [1, 6] was 59. For the same molecule, the “Abberant Cell Count” value [2, 7] was 118, the “Abnormality Rate” value [2, 7] was 1.2 and the “Cell Aberration Rate %” value [2, 7] was 23.6%. For the same molecule, the “No. of Abnormalities Polyploid” value [2, 7] was 5, the “No. of Abnormalities hyperploid” value [2, 7] was 1 and the “No. of Abormal Cells” value [2, 7] was 6. For the same molecule, the “crb (chromatid break)” value [2, 7] was 95, the “csb (chromosome break)” value [2, 7] was 28 and the “csg (chromosome gap)” value [2, 7] was 0. For the same molecule, the “ctg (chromatid gap)” value [2, 7] was 16, the “del (nullisomic)” value [2, 7] was 50 and the “dmin (dimicrobody)” value [2, 7] was 0. For the same molecule, the “f (fragment)” value [2, 7] was 60, the “r (ring chromosome)” value [2, 7] was 0 and the “tr (triradial)” value [2, 7] was 21. The “Abberant Cell Count” value [2, 8] was 108, the “Abnormality Rate” value [2, 8] was 1.8 and the “Cell Aberration Rate %” value [2, 8] was 21.6%. For the same molecule, the “No. of Abnormalities Polyploid” value [2, 8] was 6, the “No. of Abnormalities hyperploid” value [2, 8] was 1 and the “No. of Abormal Cells” value [2, 8] was 9. The “crb (chromatid break)” value [2, 8] was 94, the “csb (chromosome break)” value [2, 8] was 19 and the “csg (chromosome gap)” value [2, 8] was 0. The “ctg (chromatid gap)” value [2, 8] was 18, the “del (nullisomic)” value [2, 8] was 47 and the “dmin (dimicrobody)” value [2, 8] was 0. The “f (fragment)” value [2, 8] was 62, the “r (ring chromosome)” value [2, 8] was 0 and the “tr (triradial)” value [2, 8] was 15. For the same molecule, the “Abberant Cell Count” value [2, 9] was 221, the “Abnormality Rate” value [2, 9] was 2.0 and the “No. of Abnormalities Polyploid” value [2, 9] was 5. The “No. of Abnormalities hyperploid” value [2, 9] was 5, the “No. of Abormal Cells” value [2, 9] was 10 and the “crb (chromatid break)” value [2, 9] was 185. For the same molecule, the “csb (chromosome break)” value [2, 9] was 21, the “csg (chromosome gap)” value [2, 9] was 0 and the “ctg (chromatid gap)” value [2, 9] was 18. The “del (nullisomic)” value [2, 9] was 103, the “dmin (dimicrobody)” value [2, 9] was 0 and the “f (fragment)” value [2, 9] was 117. The “r (ring chromosome)” value [2, 9] was 0, the “tr (triradial)” value [2, 9] was 32 and the “Abberant Cell Count” value [2, 10] was 198. The “Abnormality Rate” value [2, 10] was 2.2, the “No. of Abnormalities Polyploid” value [2, 10] was 9 and the “No. of Abnormalities hyperploid” value [2, 10] was 2. For the same molecule, the “No. of Abormal Cells” value [2, 10] was 11, the “crb (chromatid break)” value [2, 10] was 170 and the “csb (chromosome break)” value [2, 10] was 33. For the same molecule, the “csg (chromosome gap)” value [2, 10] was 0, the “ctg (chromatid gap)” value [2, 10] was 18 and the “del (nullisomic)” value [2, 10] was 92. The “dmin (dimicrobody)” value [2, 10] was 0, the “f (fragment)” value [2, 10] was 100 and the “r (ring chromosome)” value [2, 10] was 1. For the same molecule, the “tr (triradial)” value [2, 10] was 29.

With `CC(=O)Oc1ccccc1C(=O)O` [Aspirin, aspirin] the “Number of hydrocephalic fetal rats” value (fetal rats [3]) was 2, the “Net Weight Gain” value ([4]; aspirin 250 mg/kg oral) was 47.8 ± 13.9 g and the “Net weight gain vs negative control group” value ([4]; aspirin 250 mg/kg, p<0.05) was “significantly lower than that of the negative control group”. For the same molecule, the “Mean no. survivors per litter” value (fetal rats [5]) was 4.0*, the “No. of litters with dead fetuses” value (fetal rats [5]) was 5 and the No. surviving fetus (fetal rats [5]) was 56.
